Test results from BindingDB's records for doi:10.1021/cb500956g (University of North Carolina At Chapel Hill, 2015).

Tests used:
Assay in all cases: AlphaScreen Assay
Conditions in all cases: pH 8
TP53-binding protein 1 = TP53-binding protein 1 (Homo sapiens, UniProt Q12888)
Protocol: (§1) In brief, compound plates (1 μL at 10 mM highest concentration; 3-fold, 10-point dilutions in DMSO) were diluted in 1X assay buffer (20 mM TRIS pH 8.0, 25 mM NaCl, 2 mM DTT and 0.05% Tween-20) to 1 mM using a Multimek robotic pipettor (Nanoscreen), and 1 μL was spotted into the wells of 384-well low-volume Proxiplates (PerkinElmer). To these plates was added 9 μL of protein−peptide mix in a 1X assay buffer by Multidrop (Thermo) to bring the final compound concentration to 100 μM, and this was incubated for 30 min at RT. Next, 2 μL of a 1:1 mixture of streptavidin-conjugate donor and nickel-chelate acceptor beads (45μg/mL in 1X assay buffer) were added, and the plates were allowed to incubate for an additional 30 min in the dark at RT. After incubation, the plates were read on an EnVision multilabel reader equipped with an HTS AlphaScreen laser (PerkinElmer).

[1] = biological target: Lysine-specific demethylase 5A (Homo sapiens, UniProt P29375)
Protocol: as §1

PHD finger protein 19 = PHD finger protein 19 (Homo sapiens, UniProt Q5T6S3)
Protocol: as §1

PHD finger protein 1 = biological target: T1, PHD finger protein 1 (Homo sapiens, UniProt O43189)
T1 sequence (O43189 whole entry): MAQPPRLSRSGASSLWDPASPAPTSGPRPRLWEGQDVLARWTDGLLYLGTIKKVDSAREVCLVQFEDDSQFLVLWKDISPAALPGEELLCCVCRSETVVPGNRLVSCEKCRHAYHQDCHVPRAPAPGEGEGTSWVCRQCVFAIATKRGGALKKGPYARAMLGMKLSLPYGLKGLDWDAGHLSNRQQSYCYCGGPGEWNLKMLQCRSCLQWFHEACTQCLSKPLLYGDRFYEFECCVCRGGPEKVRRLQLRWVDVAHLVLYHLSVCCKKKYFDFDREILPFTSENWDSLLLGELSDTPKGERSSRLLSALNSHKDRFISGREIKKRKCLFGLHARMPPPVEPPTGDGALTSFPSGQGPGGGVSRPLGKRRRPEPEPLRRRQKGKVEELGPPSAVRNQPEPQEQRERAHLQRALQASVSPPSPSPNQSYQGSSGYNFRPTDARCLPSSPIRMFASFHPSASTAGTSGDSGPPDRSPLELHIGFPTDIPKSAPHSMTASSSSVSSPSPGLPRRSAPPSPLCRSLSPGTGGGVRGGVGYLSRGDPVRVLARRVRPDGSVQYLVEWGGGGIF
Protocol: as §1

PHD finger protein 23 = PHD finger protein 23 (Homo sapiens, UniProt Q9BUL5)
Protocol: as §1

Measured: IC50

Chain of TP53-binding protein 1 (Q12888 whole entry): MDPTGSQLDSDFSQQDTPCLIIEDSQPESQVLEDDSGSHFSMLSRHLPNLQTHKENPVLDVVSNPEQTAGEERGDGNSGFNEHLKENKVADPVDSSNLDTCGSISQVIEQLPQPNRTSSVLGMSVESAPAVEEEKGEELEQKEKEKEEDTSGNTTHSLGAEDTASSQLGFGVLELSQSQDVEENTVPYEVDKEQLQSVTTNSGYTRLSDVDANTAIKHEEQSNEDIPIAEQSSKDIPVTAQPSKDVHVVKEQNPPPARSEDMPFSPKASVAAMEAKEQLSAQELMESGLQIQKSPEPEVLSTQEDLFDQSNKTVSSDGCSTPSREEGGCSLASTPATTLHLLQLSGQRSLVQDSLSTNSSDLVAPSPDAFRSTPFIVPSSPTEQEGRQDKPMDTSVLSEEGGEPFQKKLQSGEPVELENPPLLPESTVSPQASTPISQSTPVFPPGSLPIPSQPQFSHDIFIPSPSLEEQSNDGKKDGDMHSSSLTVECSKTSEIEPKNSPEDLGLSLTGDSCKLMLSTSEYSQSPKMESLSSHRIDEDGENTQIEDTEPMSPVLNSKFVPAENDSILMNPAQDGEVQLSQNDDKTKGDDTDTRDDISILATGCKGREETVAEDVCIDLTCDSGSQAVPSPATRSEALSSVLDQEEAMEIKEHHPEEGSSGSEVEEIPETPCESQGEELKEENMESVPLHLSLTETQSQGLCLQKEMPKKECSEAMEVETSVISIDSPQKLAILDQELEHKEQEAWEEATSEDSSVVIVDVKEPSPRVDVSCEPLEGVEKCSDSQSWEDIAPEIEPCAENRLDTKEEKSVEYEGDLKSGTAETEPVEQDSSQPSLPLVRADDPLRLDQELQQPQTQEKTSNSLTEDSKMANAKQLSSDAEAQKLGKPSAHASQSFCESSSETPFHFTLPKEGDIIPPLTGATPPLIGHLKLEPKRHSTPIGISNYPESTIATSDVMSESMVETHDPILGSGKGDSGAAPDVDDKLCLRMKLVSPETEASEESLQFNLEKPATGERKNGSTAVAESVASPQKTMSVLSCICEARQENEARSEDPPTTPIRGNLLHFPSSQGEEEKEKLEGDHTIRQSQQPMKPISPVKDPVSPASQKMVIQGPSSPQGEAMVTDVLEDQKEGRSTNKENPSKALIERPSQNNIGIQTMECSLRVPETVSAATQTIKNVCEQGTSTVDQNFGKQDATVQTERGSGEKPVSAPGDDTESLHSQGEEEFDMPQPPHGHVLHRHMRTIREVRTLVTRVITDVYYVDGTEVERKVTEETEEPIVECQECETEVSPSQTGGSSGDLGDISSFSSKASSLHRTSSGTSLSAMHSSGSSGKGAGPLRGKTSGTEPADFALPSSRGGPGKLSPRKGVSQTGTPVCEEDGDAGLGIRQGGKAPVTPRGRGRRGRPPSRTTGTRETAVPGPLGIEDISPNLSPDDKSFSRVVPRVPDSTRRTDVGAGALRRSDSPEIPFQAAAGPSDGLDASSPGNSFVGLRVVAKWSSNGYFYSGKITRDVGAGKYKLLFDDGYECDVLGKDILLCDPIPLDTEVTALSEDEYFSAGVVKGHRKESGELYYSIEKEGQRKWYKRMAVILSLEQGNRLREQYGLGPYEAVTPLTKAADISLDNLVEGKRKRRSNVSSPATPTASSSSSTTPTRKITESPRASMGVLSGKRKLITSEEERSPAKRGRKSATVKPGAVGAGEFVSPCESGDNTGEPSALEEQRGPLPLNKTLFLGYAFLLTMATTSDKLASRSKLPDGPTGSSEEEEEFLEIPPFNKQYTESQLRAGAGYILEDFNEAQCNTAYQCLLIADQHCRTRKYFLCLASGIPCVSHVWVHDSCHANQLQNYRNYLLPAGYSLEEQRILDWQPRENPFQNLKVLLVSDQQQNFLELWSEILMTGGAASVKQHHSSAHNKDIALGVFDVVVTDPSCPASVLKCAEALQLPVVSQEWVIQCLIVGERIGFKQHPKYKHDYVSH
Chain of PHD finger protein 23 (Q9BUL5 whole entry): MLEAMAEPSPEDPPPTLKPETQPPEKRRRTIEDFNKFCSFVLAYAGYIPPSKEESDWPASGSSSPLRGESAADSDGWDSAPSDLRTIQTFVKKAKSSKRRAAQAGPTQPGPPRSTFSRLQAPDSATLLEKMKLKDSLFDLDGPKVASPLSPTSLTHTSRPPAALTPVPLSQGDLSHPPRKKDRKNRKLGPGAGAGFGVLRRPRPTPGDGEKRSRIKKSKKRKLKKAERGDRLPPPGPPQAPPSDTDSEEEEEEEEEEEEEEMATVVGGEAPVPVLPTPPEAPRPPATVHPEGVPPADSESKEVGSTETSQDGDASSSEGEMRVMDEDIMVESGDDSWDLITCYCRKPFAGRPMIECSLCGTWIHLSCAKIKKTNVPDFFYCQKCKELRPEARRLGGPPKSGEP
Chain of Lysine-specific demethylase 5A (P29375 whole entry): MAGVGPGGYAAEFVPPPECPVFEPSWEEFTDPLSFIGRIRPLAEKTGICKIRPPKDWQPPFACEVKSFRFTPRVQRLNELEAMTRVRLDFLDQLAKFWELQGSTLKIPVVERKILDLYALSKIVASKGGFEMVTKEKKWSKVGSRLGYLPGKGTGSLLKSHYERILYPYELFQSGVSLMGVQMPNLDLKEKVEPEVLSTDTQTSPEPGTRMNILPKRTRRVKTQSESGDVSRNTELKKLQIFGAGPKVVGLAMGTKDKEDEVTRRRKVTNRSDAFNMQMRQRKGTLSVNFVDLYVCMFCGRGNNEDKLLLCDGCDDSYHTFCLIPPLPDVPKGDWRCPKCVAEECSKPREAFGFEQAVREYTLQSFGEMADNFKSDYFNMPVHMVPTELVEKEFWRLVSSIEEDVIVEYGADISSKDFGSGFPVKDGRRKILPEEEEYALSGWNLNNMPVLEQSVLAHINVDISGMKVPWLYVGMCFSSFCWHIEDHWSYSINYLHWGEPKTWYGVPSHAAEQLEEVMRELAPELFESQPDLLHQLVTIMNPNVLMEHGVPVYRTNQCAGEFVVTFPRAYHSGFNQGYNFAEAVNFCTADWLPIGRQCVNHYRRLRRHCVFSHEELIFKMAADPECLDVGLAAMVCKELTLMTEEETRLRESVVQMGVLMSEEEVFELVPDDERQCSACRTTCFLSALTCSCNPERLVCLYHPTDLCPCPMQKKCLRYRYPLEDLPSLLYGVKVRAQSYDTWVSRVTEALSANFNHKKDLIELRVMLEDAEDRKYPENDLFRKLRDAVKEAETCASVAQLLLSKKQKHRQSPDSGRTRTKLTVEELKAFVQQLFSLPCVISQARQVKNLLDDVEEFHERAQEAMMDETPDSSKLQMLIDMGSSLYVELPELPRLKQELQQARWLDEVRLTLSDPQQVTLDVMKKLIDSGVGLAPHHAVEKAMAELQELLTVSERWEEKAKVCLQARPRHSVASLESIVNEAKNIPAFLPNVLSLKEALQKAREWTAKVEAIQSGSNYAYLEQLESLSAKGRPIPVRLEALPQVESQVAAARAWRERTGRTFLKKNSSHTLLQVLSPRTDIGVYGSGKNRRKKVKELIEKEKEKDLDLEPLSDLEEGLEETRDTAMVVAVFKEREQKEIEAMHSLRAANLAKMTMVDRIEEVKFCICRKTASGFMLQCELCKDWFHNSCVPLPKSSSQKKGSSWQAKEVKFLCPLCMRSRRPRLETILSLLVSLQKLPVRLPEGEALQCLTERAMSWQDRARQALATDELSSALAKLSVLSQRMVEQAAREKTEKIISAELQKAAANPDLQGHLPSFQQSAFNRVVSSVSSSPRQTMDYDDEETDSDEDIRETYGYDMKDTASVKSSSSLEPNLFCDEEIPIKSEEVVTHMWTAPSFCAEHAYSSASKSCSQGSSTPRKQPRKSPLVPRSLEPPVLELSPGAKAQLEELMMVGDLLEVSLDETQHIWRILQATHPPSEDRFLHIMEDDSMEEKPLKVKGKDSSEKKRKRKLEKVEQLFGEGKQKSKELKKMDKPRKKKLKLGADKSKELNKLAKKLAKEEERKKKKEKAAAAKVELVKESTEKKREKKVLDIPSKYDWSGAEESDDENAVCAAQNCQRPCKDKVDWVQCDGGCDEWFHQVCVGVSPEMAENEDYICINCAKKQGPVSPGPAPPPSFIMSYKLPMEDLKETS

CC(C)(C)NCCCNC(=O)c1ccccc1Br [2-Bromo-N-(3-(tert-butylamino)propyl)benzamide (16)]
> 100 µM: all assays above

CC(C)(C)NCCCCNC(=O)c1cccc(Br)c1 [3-Bromo-N-(4-(tert-butylamino)butyl)benzamide (11)]
> 100 µM: all assays above

CC(C)(C)NCCCCCNC(=O)c1cccc(Br)c1 [3-Bromo-N-(5-(tert-butylamino)pentyl)benzamide (12)]
> 100 µM: all assays above

CC(C)(C)NCCCNC(=O)c1ccc(Br)cc1 [4-Bromo-N-(3-(tert-butylamino)propyl)benzamide (15)]
> 100 µM: all assays above

CC(C)(C)NCCCNC(=O)c1cc(Br)ccn1 [4-Bromo-N-(3-(tert-butylamino)propyl)picolinamide (24)]
> 100 µM: all assays above

CC(C)(C)N1CCN(C(=O)c2cccc(Br)c2)CC1 [(3-Bromophenyl)(4-(tert-butyl)piperazin-1-yl)methanone (10)]
> 100 µM: all assays above

CC(C)(C)NCCCNC(=O)c1cc(C(F)(F)F)ccn1 [N-(3-(Tert-butylamino)propyl)-4-(trifluoromethyl)picolinamide (25)]
> 100 µM: all assays above
